From PMC10304164, “Laurequinone, a Lead Compound against Leishmania” (Marine Drugs, 2023)
Where two headings read alike, the source gives them in different places.

What was measured:
[1] = Cytotoxic activity, Alamar Blue; assay type: cell-based; conditions: mouse, murine macrophages J774A.1, 24 h
Method: Murine macrophages (J774A.1) ATCC TIB-67 were cultured in RPMI, supplemented with 10% FBS at 37 °C and 5 % CO2 atmosphere.
In a 96-well plate, macrophages (2 × 10^5 cells/mL) were added. After completing the adherence (2–4 h), macrophages were incubated with serial dilutions of compounds 1–5. […] The selectivity index (SI) was calculated as the ratio of CC50 and IC50 [38].

[2] = tested on: Leishmania amazonensis promastigotes; test: Alamar Blue assay against promastigotes; assay type: cell-based; conditions: L. amazonensis promastigotes
Method: Leishmania amazonensis (MHOM/BR/77/LTB0016) promastigotes were cultured in RPMI 1640 medium (Gibco, Waltham, MA, USA), supplemented with 10 % FBS at 26 °C. Additionally, for maintenance, the promastigotes were cultured in SND medium (Sigma-Aldrich, Darmstadt, Germany) supplemented with 10 % FBS at 26 °C. Both media were supplemented with gentamicin at 10 µg/mL.
Compounds 1–5 were tested against promastigotes of Leishmania amazonensis using the colorimetric assay based on the Alamar Blue® reagent. In a 96-well plate, serial dilutions of the compounds and the promastigote form of the parasite (10^6 cells/mL) were added at a final volume of 200 µL.

[3] = tested on: L. amazonensis intracellular amastigotes; test: Alamar Blue assay against intracellular amastigotes in murine macrophages; assay type: cell-based; conditions: Leishmania amazonensis, Macrophage; intracellular amastigotes of L. amazonensis
Method: Briefly, in a 96-well plate, murine macrophages (2 × 10^5 cells/mL) were incubated in RPMI medium at 37 °C and 5 % CO2 atmosphere for 2–4 h. Promastigote forms of L. amazonensis (2 × 10^6 cells/mL) were added to reach a 1:10 macrophage:parasite ration, and after 24 h of incubation, the cells were washed to discard the not-introduced parasites. Serial dilutions of the compound were added in 100 µL of RPMI medium. Following 24 h of incubation, the plate was washed, and the cells were broken with SDS 0.05% for 30 s. Fresh medium was added, and 48 h later, 10% Alamar Blue® reagent was added.

[4] = tested on: L. amazonensis promastigotes; test: Plasma membrane permeability (SYTOX Green); assay type: cell-based, Leishmania amazonensis; conditions: 24 h incubation with IC90
Method: (§1) After incubation for 24 h at 26 °C, samples were centrifuged (3000 rpm, 10 min, 4 °C) and resuspended in 50 µL of PBS buffer. Different events involved in parasite cell death were studied following the manufacturer’s instructions for each kit.
The SYTOX Green assay (Life Technologies, Madrid, Spain) was used to determine the damage in the plasma membrane permeability of treated cells. Parasites were incubated for 24 h with the compound and the stain was added and incubated for 15 min. […] Triton X-100, a well-known non-ionic surfactant, was added at 0.5% for 3 h before staining, as a positive control.

[5] = tested on: L. amazonensis promastigotes; test: Phosphatidylserine externalization (annexin V/PI, TALI cytometer); assay type: cell-based, Leishmania amazonensis; conditions: 24 h incubation with IC90
Method: as §1
A double-staining assay with annexin V/propidium iodide (PI) was performed using the Tali® Apoptosis Kit–Annexin V Alexa Fluor® 488 (Invitrogen^TM, Waltham, MA, USA). Briefly, after incubating the treated parasites for 24 h, they were washed with the buffer and incubated with annexin V for 20 min. Promastigotes were centrifuged and resuspended in buffer containing PI and incubated for 3 min. Finally, the stained cells were loaded into a slide and inserted in a TALI^TM image-based cytometer (Life Technologies, Carlsbad, CA, USA). Data were expressed in percentages, divided into three groups: apoptotic cells (green fluorescence), dead cells (red or red and green fluorescence), and live cells (no fluorescence), provided by TALI® data acquisition and analysis software (Life Technologies).

[6] = tested on: L. amazonensis promastigotes; test: Chromatin condensation analysis (Hoechst 33342/PI); assay type: cell-based, Leishmania amazonensis; conditions: promastigotes treated with IC90, Hoechst/PI
Method: as §1
The Invitrogen Chromatin Condensation/Dead Cell Apoptosis Kit, Hoechst 33342/propidium iodide (PI), was used to determine whether chromatin condensation was produced in the treated parasites. After adding the kit, the parasites were incubated for 30 min at 26 °C in the dark. The results were observed under the EVOS fluorescence microscope using DAPI (excitation 350 nm/emission 461 nm for Hoechst) and RFP (excitation 535 nm/emission 617 nm for PI) light cubes. The obtained images were divided into three types of results: low fluorescence of both stains when the cells were alive, intense fluorescence when the cell had condensed chromatin (programmed cell death), and intense red fluorescence when the cell had died.

[7] = tested on: Leishmania amazonensis promastigotes; test: Mitochondrial membrane potential analysis (JC-1); assay type: cell-based; conditions: 24 h incubation with IC90, JC-1
Method: as §1
The JC-1 Mitochondrial Membrane Potential Assay Kit® (Cayman Chemical, Ann Arbor, MI, USA) was used to determine whether an alteration in the mitochondrial potential occurred during cell death. The parasites treated with laurequinone were incubated with the staining solution for 20 min at 26 °C in the dark. Green and red fluorescence were measured using the EnSpire Multimode Plate Reader® (PerkinElmer). The results were expressed as the percentage relative to the untreated cells of the red (J-aggregates 540/570 nm)/green ratio (J-monomers 485/535 nm). The membrane-permeant JC-1 dye is widely used in apoptosis studies to monitor mitochondrial health. […] Consequently, mitochondrial depolarization is indicated by a decrease in the red/green fluorescence intensity ratio. Sodium azide (20 mM) was added as a positive control.

[8] = tested on: L. amazonensis promastigotes; test: Reactive oxygen species analysis (CellROX Deep Red); assay type: cell-based, Leishmania amazonensis; conditions: 24 h incubation with IC90
Method: as §1
Oxidative stress is the result of an imbalance between the production of reactive oxygen species (ROS) and the cells’ ability to remove them. The CellROX® Deep Red Reagent (ThermoFisher Scientific, Waltham, MA, USA) was used to measure the oxidative stress. […] Treated parasites were incubated and resuspended in the buffer, the kit was added, and the plate was incubated for 30 min at 26 °C in the dark. Oxidative stress is represented as red fluorescence in the images obtained with the Cy5 light cube (excitation 644 nm/emission 665 nm) of the EVOS® FL Cell Imaging System (ThermoFisher Scientific, Waltham, MA, USA). Untreated parasites were used as a negative control, and hydrogen peroxide (600 mM) was used as a positive control.

[9] = tested on: Leishmania amazonensis promastigotes; test: ATP level analysis (CellTiter-Glo); assay type: cell-based; conditions: 24 h incubation with IC90, compared to untreated parasites
Method: as §1
ATP levels were measured using the CellTiter-Glo® Luminescent Cell Viability Assay kit (Promega, Fitchburg, WI, USA) and the EnSpire Multimode Plate Reader® (PerkinElmer, Waltham, MA, USA). After 24 h of incubation with laurequinone (1), the pellet was resuspended in the buffer and the kit. After 2 min of agitation and 10 min of incubation at room temperature in the dark, the luminescence was measured with the EnSpire Multimode Plate Reader®. The results were plotted against the negative control of untreated cells. Sodium azide (20 mM) was added as a positive control.

[10] = tested on: L. donovani axenic amastigotes; set-up: method as in PMID 21717278; conditions: L. donovani axenic amastigotes ref 32; cited from earlier work
trypanothione reductase = tested on: trypanothione reductase; set-up: method as in PMID 21717278; conditions: cited from earlier work
[11] = tested on: L. donovani promastigotes; set-up: method as in PMID 21717278; conditions: L. donovani promastigotes ref 32; cited from earlier work
[12] = Leishmania amazonensis, 72 h, 72 h total, read-out: IC50 Promastigotes
[13] = 72 h total, read-out: IC50 Promastigotes

SMILES	CC50 at 24 h [1]	IC50 [2, 12]	IC50 [3]	CC50 at 24 h ([1]; J774A.1 macrophages)	IC50 [2, 13]	further results
Cc1cc2c(cc1Br)[C@]1(C)CC[C@H](C)[C@]1(C)O2 [Aplysin (5), aplysin]	1100 ± 40.6 µM	54.1 µM				
Cc1ccc([C@]2(C)CC[C@@H]3C[C@@]32C)c(O)c1 [Debromolaurinterol (3), debromolaurinterol]		< 15 µM	24.3 ± 5.09 µM	70.1 ± 12.9 µM	12.48 ± 0.05 µM	
C=C1[C@@H](C)CC[C@@]1(C)c1cc(Br)c(C)cc1O [Isolaurinterol (4), isolaurinterol]	24.6 ± 2.37 µM	< 15 µM			10.1 ± 1.69 µM	
CC1=CC(=O)C([C@]2(C)CC[C@@H]3C[C@@]32C)=CC1=O [Laurequinone (1), laurequinone]		< 2 µM	16.7 ± 6.08 µM	42.1 ± 1.3 µM	1.87 ± 0.17 µM	IC50 ([2]; Leishmania amazonensis, expressed in µg/mL, read-out: IC50): 0.43 µg/mL; plasma membrane permeability (SYTOX Green fluorescence) [4]: no significant green fluorescence was observed; cell population with exposed phosphatidylserine residues [5]: approximately 30%; chromatin condensation [6]: no chromatin condensation was observed; mitochondrial membrane potential (ΔΨm) [7]: significant decrease in mitochondrial membrane potential; ROS accumulation (CellROX Deep Red fluorescence) [8]: noticeable increase in visual fluorescence of CellROX Deep Red; ATP levels [9]: no change in ATP levels
Cc1cc(O)c([C@]2(C)CC[C@@H]3C[C@@]32C)cc1Br [Laurinterol (2), laurinterol]	80.1 ± 7.79 µM	34.5 ± 6.44 µM	34.7 ± 4.06 µM			
CCCCCCCCCCCCCCCCOP(=O)([O-])OCC[N+](C)(C)C [Miltefosine, miltefosine, reference compound]		6.48 ± 0.25 µM	3.12 ± 0.29 µM	72.2 ± 3.07 µM		
CC1=CC(=O)c2c(O)cccc2C1=O [Plumbagin]						IC50 [10]: 0.21 µM; mechanism of action on trypanothione reductase (trypanothione reductase): non-competitive inhibition of trypanothione reductase; IC50 [11]: 0.34 µM
